US8901118B2, “Compounds and methods for kinase modulation, and indications therefor” (Plexxikon Inc., priority 2010, dated 2014)

Experiments:
[1] = test system: Osteoclast precursor cells; assay: Osteoclast differentiation assay (acid phosphatase readout); assay type: cell-based
[2] = test system: BCR-FMS BaF3 cells; assay: Splenomegaly mouse model, BCR-FMS BaF3 cells; assay type: in vivo; settings: dosed once per day at 10 mg per kg
Procedure, shortened: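 Female nu/nu mice given 5×10^6 engineered BaF3 cells i.v. on day 1; compound in 1.0% Polysorbate 80/0.5% HPMC/2.5% DMSO dosed orally once (sometimes twice) daily, days 10-18. Spleens weighed 4 h after final dose; % spleen growth inhibition calculated versus vehicle control.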

Compound	IC50 [1] [nM]	% spleen growth inhibition, Fms [2] [%]
Cc1cnc2[nH]cc(Cc3ccc(NC4CCCCC4)nc3F)c2c1 [Compound P-3008, cyclohexyl-[6-fluoro-5-(5-methyl-1H-pyrrolo[2,3-b]pyridin-3-ylmethyl)-pyridin-2-yl]-amine]	< 100	
O=C(c1cnc(NC2CCC(F)(F)CC2)c(F)c1)c1c[nH]c2ncnc(NC3CC3)c12 [Compound P-4053, [4-(cyclopropylamino)-7H-pyrrolo[2,3-d]pyrimidin-5-yl]-[6-[(4,4-difluorocyclohexyl)amino]-5-fluoro-3-pyridyl]methanone]		69
